Reference: article PMC6731281, “Production of zosteric acid and other sulfated phenolic biochemicals in microbial cell factories” (Nature Communications, 2019)

Legend:
Format in all cases: cell-based
[1] = biological target: T1, SULT1A1Rno (Rattus norvegicus, UniProt P17988); assay: HPLC of supernatant of E. coli expressing the enzyme; product zosteric acid matched synthetic standard; conditions: intracellular PAPS as donor; 100 µM substrate in screen; M9, 37 °C, 24 h
T1 construct: gene Sult1a1; codon-optimized synthetic gene in pETDuet-1, expressed in E. coli KRX or BL21(DE3) (also in S. cerevisiae); whole growing cells
T1 sequence (P17988 whole entry): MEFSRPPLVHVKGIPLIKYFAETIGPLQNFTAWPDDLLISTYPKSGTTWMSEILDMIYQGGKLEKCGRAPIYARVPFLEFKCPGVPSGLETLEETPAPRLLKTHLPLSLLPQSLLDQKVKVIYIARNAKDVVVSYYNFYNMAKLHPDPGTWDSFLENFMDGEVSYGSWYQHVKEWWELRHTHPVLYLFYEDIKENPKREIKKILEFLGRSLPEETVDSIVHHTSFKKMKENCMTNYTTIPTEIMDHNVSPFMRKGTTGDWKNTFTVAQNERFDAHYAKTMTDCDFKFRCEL

[2] = biological target: T2, TALRca (Rhodobacter capsulatus, UniProt D5AR26); assay: HPLC of p-coumaric and zosteric acid in culture of E. coli co-expressing TAL and SULT1A1; conditions: with or without 2 mM tyrosine; M9, 0.2% glucose, 24 h
T2 construct: gene hutH; co-expressed with rat SULT1A1 in E. coli BL21(DE3); whole growing cells
T2 sequence (D5AR26 1-531): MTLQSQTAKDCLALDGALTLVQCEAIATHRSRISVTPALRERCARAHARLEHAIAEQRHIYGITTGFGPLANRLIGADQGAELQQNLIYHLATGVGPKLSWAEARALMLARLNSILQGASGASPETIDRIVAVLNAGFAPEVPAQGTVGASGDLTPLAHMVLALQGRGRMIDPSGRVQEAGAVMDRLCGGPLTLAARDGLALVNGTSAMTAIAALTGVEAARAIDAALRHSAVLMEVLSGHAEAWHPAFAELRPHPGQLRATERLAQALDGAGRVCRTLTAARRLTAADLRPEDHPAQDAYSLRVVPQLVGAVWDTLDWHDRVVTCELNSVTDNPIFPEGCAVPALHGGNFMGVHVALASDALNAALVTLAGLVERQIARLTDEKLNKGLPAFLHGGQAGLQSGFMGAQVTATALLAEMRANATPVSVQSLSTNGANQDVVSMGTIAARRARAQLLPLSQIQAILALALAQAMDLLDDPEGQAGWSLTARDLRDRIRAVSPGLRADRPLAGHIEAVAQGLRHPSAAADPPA

[3] = biological target: T3, TALRsp (Cereibacter sphaeroides, UniProt Q3IWB0); assay: as above; conditions: with or without 2 mM tyrosine; M9, 0.2% glucose, 24 h
T3 construct: gene hutH; co-expressed with rat SULT1A1 in E. coli BL21(DE3); whole growing cells
T3 sequence (Q3IWB0 1-523): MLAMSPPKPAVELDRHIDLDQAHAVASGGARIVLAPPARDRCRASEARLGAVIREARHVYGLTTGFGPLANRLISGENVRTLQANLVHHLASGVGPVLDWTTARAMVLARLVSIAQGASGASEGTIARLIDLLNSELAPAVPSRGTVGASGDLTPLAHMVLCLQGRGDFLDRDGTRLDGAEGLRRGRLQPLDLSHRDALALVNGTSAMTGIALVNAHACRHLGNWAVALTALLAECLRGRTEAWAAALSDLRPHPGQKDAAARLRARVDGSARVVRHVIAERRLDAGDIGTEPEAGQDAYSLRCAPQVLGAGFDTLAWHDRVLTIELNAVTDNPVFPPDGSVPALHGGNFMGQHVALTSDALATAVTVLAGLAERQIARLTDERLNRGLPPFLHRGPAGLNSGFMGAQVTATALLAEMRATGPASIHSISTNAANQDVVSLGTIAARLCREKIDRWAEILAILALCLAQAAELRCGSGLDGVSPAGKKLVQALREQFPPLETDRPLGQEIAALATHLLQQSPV

[4] = biological target: T4, TALFjo (Flavobacterium johnsoniae, UniProt A5FKY3); assay: as above; conditions: with or without 2 mM tyrosine; M9, 0.2% glucose, 24 h
T4 construct: gene Fjoh_1109; co-expressed with rat SULT1A1 in E. coli BL21(DE3) (also in S. cerevisiae); whole growing cells
T4 sequence (A5FKY3 1-506): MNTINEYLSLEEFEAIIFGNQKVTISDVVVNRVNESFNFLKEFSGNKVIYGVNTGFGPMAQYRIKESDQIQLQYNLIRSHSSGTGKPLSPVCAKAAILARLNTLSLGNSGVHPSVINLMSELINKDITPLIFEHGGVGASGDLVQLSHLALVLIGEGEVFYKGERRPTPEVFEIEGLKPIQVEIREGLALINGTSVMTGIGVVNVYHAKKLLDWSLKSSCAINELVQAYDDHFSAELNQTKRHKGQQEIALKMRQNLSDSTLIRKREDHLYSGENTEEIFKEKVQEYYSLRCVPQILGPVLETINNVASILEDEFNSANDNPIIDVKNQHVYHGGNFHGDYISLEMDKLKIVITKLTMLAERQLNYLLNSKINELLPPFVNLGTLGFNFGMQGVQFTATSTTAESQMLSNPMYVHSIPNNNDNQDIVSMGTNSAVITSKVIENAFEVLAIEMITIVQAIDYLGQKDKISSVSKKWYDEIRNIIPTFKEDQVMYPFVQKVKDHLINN

| Compound | HPLC of supernatant of E. coli expressing the enzyme; product zosteric acid matc [1] | HPLC of p-coumaric and zosteric acid in culture of E. coli co-expressing TAL and [2] | HPLC of p-coumaric and zosteric acid in culture of E. coli co-expressing TAL and [3] | HPLC of p-coumaric and zosteric acid in culture of E. coli co-expressing TAL and [4] |
| --- | --- | --- | --- | --- |
| O=C(O)/C=C/c1ccc(O)cc1 [p-coumaric acid] | SULT1A1Rno showed the greatest production of zosteric acid from p-coumaric acid | – | – | – |
| N[C@@H](Cc1ccc(O)cc1)C(=O)O [tyrosine] | – | expression of a TAL-encoding gene was required for the production of pHCA | expression of a TAL-encoding gene was required for the production of pHCA | expression of a TAL-encoding gene was required for the production of pHCA |
